Molecules are shown by their SMILES. Where two headings read alike, the source gives them in different places. Some results are limits rather than exact numbers.

Here are results for 18 compounds from US20230257372A1 (CHONG KUN DANG PHARMACEUTICAL CORP., priority 2020, published 2023).

The target of test [1] is T1, human recombinant HDAC1 (Homo sapiens, UniProt Q13547).
T1 construct: purchased Enzo Life Science, Inc. BML-SE456
The experiment in a line: HDAC1 enzyme activity inhibition (HDAC Fluorimetric Drug Discovery Kit). In kind it is biochemical. The note with it: read-out: HDAC1. A digest of the protocol: (§1)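 Compounds in 5-fold dilution series were incubated with […] enzyme and 10 μM substrate at 30° C for 60 minutes. Fluor de Lys Developer II was then added for 30 minutes to stop the reaction and develop the fluorescent signal.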

Test [2] addresses T2, human recombinant HDAC6 (Homo sapiens, UniProt Q9UBN7).
T2 construct: purchased Calbiochem Inc. 382180
T2 sequence (Q9UBN7 1-1215): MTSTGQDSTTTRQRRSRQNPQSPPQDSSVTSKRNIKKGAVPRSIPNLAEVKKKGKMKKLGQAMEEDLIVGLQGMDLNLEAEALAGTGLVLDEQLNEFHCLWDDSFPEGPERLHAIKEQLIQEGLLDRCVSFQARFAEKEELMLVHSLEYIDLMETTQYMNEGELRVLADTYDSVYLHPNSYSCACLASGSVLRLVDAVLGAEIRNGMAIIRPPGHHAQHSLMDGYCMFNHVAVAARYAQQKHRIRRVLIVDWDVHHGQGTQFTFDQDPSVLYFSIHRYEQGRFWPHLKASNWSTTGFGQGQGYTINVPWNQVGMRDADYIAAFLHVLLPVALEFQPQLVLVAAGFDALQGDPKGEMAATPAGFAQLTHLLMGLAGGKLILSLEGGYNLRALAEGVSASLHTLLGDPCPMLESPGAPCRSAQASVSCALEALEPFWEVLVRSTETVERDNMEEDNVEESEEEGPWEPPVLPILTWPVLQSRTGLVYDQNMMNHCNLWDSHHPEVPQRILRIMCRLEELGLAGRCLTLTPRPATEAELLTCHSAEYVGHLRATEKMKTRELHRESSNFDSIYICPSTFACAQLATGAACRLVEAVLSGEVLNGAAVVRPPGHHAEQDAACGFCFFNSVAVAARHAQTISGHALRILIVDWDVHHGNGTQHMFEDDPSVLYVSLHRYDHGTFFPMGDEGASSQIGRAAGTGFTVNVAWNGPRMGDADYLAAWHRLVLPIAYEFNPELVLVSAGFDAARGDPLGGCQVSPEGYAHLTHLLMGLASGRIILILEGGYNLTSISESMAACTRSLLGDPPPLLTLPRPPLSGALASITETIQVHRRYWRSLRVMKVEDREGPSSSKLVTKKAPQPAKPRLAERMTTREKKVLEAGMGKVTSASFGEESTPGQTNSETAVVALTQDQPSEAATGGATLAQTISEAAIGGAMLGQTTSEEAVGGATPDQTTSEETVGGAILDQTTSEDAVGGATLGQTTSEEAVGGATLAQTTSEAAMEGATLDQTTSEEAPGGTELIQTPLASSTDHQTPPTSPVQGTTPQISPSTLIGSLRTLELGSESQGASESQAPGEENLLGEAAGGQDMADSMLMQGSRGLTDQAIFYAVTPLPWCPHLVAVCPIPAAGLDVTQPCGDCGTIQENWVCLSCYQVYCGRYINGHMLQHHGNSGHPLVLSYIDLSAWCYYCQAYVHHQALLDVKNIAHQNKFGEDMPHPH
In words: HDAC6 enzyme activity inhibition (HDAC Fluorimetric Drug Discovery Kit). The test is classed as biochemical. A digest of the protocol:
as §1

Setting [3] is: human recombinant HDAC1, IC50 calculated with GraphPad Prism.
Setting [4] is: human recombinant HDAC6, IC50 calculated with GraphPad Prism.
[5] abbreviates: human recombinant HDAC1, Fluor de Lys substrate, 30° C. 60 minutes.
[6] abbreviates: human recombinant HDAC6, same protocol as HDAC1.

T1 sequence (Q13547 whole entry): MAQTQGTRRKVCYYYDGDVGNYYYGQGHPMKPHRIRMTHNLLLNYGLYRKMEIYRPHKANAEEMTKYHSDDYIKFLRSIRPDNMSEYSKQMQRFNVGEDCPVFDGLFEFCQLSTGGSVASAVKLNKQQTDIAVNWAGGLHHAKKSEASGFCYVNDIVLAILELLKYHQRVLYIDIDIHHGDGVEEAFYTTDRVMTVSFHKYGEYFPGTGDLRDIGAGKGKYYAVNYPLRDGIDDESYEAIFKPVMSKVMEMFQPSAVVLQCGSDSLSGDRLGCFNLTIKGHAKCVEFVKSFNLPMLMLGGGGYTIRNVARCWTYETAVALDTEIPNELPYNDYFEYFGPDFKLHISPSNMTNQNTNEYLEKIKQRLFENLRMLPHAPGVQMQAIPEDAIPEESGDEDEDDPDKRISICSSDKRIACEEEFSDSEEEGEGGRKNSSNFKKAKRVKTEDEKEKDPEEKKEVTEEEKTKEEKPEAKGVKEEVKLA

For `CN(C)CC(=O)Nc1cccc(-c2cn(Cc3ccc(-c4nnc(C(F)F)o4)cn3)nn2)c1` [Compound 4230, N-(3-(1-((5-(5-(difluoromethyl)-1,3,4-oxadiazol-2-yl)pyridin-2-yl)methyl)-1H-1,2,3-triazol-4-yl)phenyl)-2-(dimethylamino)acetamide], the IC50 in test [1] (setting [3]) was greater than 50000 nM; in test [2] (setting [4]), 23 nM. In addition, the “HDAC6 selectivity (fold)” value in test [2] (HDAC1 IC50 / HDAC6 IC50) came to 2173 fold.
Take `FC(F)c1nnc(-c2ccc(Cn3cc(-c4cccc(C5CN(C6CCC6)C5)c4)nn3)cc2)o1` [Compound 4510, 2-(4-((4-(3-(1-cyclobutylazetidin-3-yl)phenyl)-1H-1,2,3-triazol-1-yl)methyl)phenyl)-5-(difluoromethyl)-1,3,4-oxadiazole]: the IC50 in test [1] (setting [5]) is greater than 50000 nM; in test [2] (setting [6]) it was 23 nM. Further, the “HDAC6 selectivity (fold)” value in test [2] (HDAC6 over HDAC1) came out at 2173 fold.
As for `CN1Cc2ccc(-c3cn(Cc4ccc(-c5nnc(C(F)F)o5)cc4)nn3)cc2C1` [Compound 4513, 2-(difluoromethyl)-5-(4-((4-(2-methylisoindolin-5-yl)-1H-1,2,3-triazol-1-yl)methyl)phenyl)-1,3,4-oxadiazole], the results for the IC50 in test [1] (setting [5]) and in test [2] (setting [6]) were greater than 50000 nM and 101 nM, respectively. Moreover, the “HDAC6 selectivity (fold)” value in test [2] (HDAC6 over HDAC1) is listed as 495 fold.
As to `FC(F)c1nnc(-c2ccc(Cn3cc(-c4cccc(N5C[C@@H]6C[C@H]5CN6)c4)nn3)cc2)o1` [Compound 4317, 2-(4-((4-(3-((1S,4S)-2,5-diazabicyclo[2.2.1]heptan-2-yl)phenyl)-1H-1,2,3-triazol-1-yl)methyl)phenyl)-5-(difluoromethyl)-1,3,4-oxadiazole], the results for the IC50 in test [1] (setting [3]) and in test [2] (setting [4]) were greater than 50000 nM and 83.6 nM, respectively. The “HDAC6 selectivity (fold)” value in test [2] (HDAC1 IC50 / HDAC6 IC50) was 598 fold.
Turning to `FC(F)c1nnc(-c2ccc(Cn3cc(C4CCN(C5COC5)CC4)nn3)nc2)o1` [Compound 3809, 2-(difluoromethyl)-5-(6-((4-(1-(oxetan-3-yl)piperidin-4-yl)-1H-1,2,3-triazol-1-yl)methyl)pyridin-3-yl)-1,3,4-oxadiazole], the IC50 in test [1] (setting [3]) is greater than 50000 nM; in test [2] (setting [4]) it was 198 nM. The “HDAC6 selectivity (fold)” value in test [2] (HDAC1 IC50 / HDAC6 IC50) is given as 253 fold.
In the case of `CN1CCN(Cc2ccccc2-c2cn(Cc3ccc(-c4nnc(C(F)F)o4)cc3F)nn2)CC1` [Compound 4587, 2-(difluoromethyl)-5-(3-fluoro-4-((4-(2-((4-methylpiperazin-1-yl)methyl)phenyl)-1H-1,2,3-triazol-1-yl)methyl)phenyl)-1,3,4-oxadiazole], the IC50 in test [1] (setting [5]) is greater than 50000 nM; in test [2] (setting [6]), 182 nM. For the same compound, the “HDAC6 selectivity (fold)” value in test [2] (HDAC6 over HDAC1) came out at 274 fold.
`Fc1cc(-c2nnc(C(F)F)o2)cnc1Cn1cc(-c2cncc(CN3CCC3)c2)nn1` [Compound 18882, 2-(6-((4-(5-(azetidin-1-ylmethyl)pyridin-3-yl)-1H-1,2,3-triazol-1-yl)methyl)-5-fluoropyridin-3-yl)-5-(difluoromethyl)-1,3,4-oxadiazole]: the IC50 was greater than 50000 nM in test [1] (setting [5]) and 163 nM in test [2] (setting [6]). For the same compound, the “HDAC6 selectivity (fold)” value in test [2] (HDAC6 over HDAC1) was 306 fold.
`Fc1cc(-c2nnc(C(F)F)o2)ccc1Cn1cc(-c2ccccn2)nn1` [Compound 18256, 2-(difluoromethyl)-5-(3-fluoro-4-((4-(pyridin-2-yl)-1H-1,2,3-triazol-1-yl)methyl)phenyl)-1,3,4-oxadiazole]: the IC50 was greater than 50000 nM in test [1] (setting [5]) and 43.7 nM in test [2] (setting [6]). For the same compound, the “HDAC6 selectivity (fold)” value in test [2] (HDAC6 over HDAC1) came to 1144 fold.
Take `Fc1cc(-c2nnc(C(F)F)o2)ccc1Cn1cc(-c2ccc(CN3CCC3)cc2)nn1` [Compound 4466, 2-(4-((4-(4-(azetidin-1-ylmethyl)phenyl)-1H-1,2,3-triazol-1-yl)methyl)-3-fluorophenyl)-5-(difluoromethyl)-1,3,4-oxadiazole]: the IC50 in test [1] (setting [3]) is greater than 50000 nM; in test [2] (setting [4]), 7.2 nM. For the same compound, in test [2] (HDAC1 IC50 / HDAC6 IC50), the “HDAC6 selectivity (fold)” value stood at 6944 fold.
In the case of `CC(C)N1CCN(c2cc(-c3cn(Cc4ccc(-c5nnc(C(F)F)o5)cc4F)nn3)ccn2)CC1` [Compound 4635], the IC50 in test [1] (setting [5]) was greater than 50000 nM; in test [2] (setting [6]), 19.8 nM. The “HDAC6 selectivity (fold)” value in test [2] (HDAC6 over HDAC1) is recorded as 2525 fold.
On to `O=C(Nc1cccc(-c2cn(Cc3ccc(-c4nnc(C(F)F)o4)cn3)nn2)c1)C1CNC1` [Compound 4463, N-(3-(1-((5-(5-(difluoromethyl)-1,3,4-oxadiazol-2-yl)pyridin-2-yl)methyl)-1H-1,2,3-triazol-4-yl)phenyl)azetidin-3-carboxamide], for which the IC50 was greater than 50000 nM in test [1] (setting [3]) and 47.8 nM in test [2] (setting [4]). The “HDAC6 selectivity (fold)” value in test [2] (HDAC1 IC50 / HDAC6 IC50) worked out at 1046 fold.
As to `CC(C)(F)CN1CCC(c2cn(Cc3ccc(-c4nnc(C(F)F)o4)cn3)nn2)CC1` [Compound 3895, 2-(difluoromethyl)-5-(6-((4-(1-(2-fluoro-2-methylpropyl)piperidin-4-yl)-1H-1,2,3-triazol-1-yl)methyl)pyridin-3-yl)-1,3,4-oxadiazole], the results for the IC50 in test [1] (setting [3]) and in test [2] (setting [4]) were greater than 50000 nM and 293 nM, respectively. In test [2] (HDAC1 IC50 / HDAC6 IC50), the “HDAC6 selectivity (fold)” value was determined as 171 fold.
`Fc1c(-c2cn(Cc3ccc(-c4nnc(C(F)F)o4)cn3)nn2)cccc1N1CCN(C2CCC2)CC1` [Compound 4572, 2-(6-((4-(3-(4-cyclobutylpiperazin-1-yl)-2-fluorophenyl)-1H-1,2,3-triazol-1-yl)methyl)pyridin-3-yl)-5-(difluoromethyl)-1,3,4-oxadiazole]: the IC50 is greater than 50000 nM in test [1] (setting [5]) and 19.5 nM in test [2] (setting [6]). Moreover, the “HDAC6 selectivity (fold)” value in test [2] (HDAC6 over HDAC1) was 2564 fold.
For the compound `CC(C)(C)C(=O)Nc1cccc(-c2cn(Cc3ccc(-c4nnc(C(F)F)o4)cc3)nn2)c1` [Compound 4327, N-(3-(1-(4-(5-(difluoromethyl)-1,3,4-oxadiazol-2-yl)benzyl)-1H-1,2,3-triazol-4-yl)phenyl)pivalamide], the IC50 in test [1] (setting [3]) is greater than 50000 nM; in test [2] (setting [4]), 35.8 nM. Moreover, in test [2] (HDAC1 IC50 / HDAC6 IC50), the “HDAC6 selectivity (fold)” value is on record as 1396 fold.
Regarding `CN1CCN(C(=O)c2cccc(-c3cn(Cc4ccc(-c5nnc(C(F)F)o5)cn4)nn3)c2)CC1` [Compound 3887, (3-(1-((5-(5-(difluoromethyl)-1,3,4-oxadiazol-2-yl)pyridin-2-yl)methyl)-1H-1,2,3-triazol-4-yl)phenyl)(4-methylpiperazin-1-yl)methanone], the values for the IC50 in test [1] (setting [3]) and in test [2] (setting [4]) were greater than 50000 nM and 57.1 nM, respectively. Besides, the “HDAC6 selectivity (fold)” value in test [2] (HDAC1 IC50 / HDAC6 IC50) came to 875 fold.
Regarding `CN1CCC(Nc2cccc(-c3cn(Cc4ccc(-c5nnc(C(F)F)o5)cn4)nn3)c2)CC1` [Compound 3830, N-(3-(1-((5-(5-(difluoromethyl)-1,3,4-oxadiazol-2-yl)pyridin-2-yl)methyl)-1H-1,2,3-triazol-4-yl)phenyl)-1-methylpiperidin-4-amine], the IC50 in test [1] (setting [3]) is greater than 50000 nM; in test [2] (setting [4]), 22.8 nM. Further, in test [2] (HDAC1 IC50 / HDAC6 IC50), the “HDAC6 selectivity (fold)” value was found to be 219 fold.
With `CN1CCC(c2cccc(-c3cn(Cc4ccc(-c5nnc(C(F)F)o5)cc4F)nn3)c2)CC1` [Compound 4290, 2-(difluoromethyl)-5-(3-fluoro-4-((4-(3-(1-methylpiperidin-4-yl)phenyl)-1H-1,2,3-triazol-1-yl)methyl)phenyl)-1,3,4-oxadiazole], the IC50 in test [1] (setting [3]) is greater than 50000 nM; in test [2] (setting [4]) it was 55 nM. In addition, the “HDAC6 selectivity (fold)” value in test [2] (HDAC1 IC50 / HDAC6 IC50) is listed as 909 fold.
Regarding `Fc1cc(-c2nnc(C(F)F)o2)cnc1Cn1cc(-c2ccccc2)nn1` [Compound 17347, 2-(difluoromethyl)-5-(5-fluoro-6-((4-phenyl-1H-1,2,3-triazol-1-yl)methyl)pyridin-3-yl)-1,3,4-oxadiazole], the values for the IC50 in test [1] (setting [5]) and in test [2] (setting [6]) were greater than 50000 nM and 79.6 nM, respectively. For the same compound, the “HDAC6 selectivity (fold)” value in test [2] (HDAC6 over HDAC1) turned out to be 628 fold.
